# Like-named read-outs stand apart in the source and are kept apart here. *1 amine or outer side, *2 acyl side, *3 side chain or, on linkers, in order; H or OH if unused. Where a SMILES comes first, the peptide text is derived from it. Bridges are numbered along the chain shown (N, C = ends). [ ]: non-standard residue; d: D form. 2Nal = N[C@@H](Cc1ccc2ccccc2c1)C(=O)O; AEF = NCCOc1ccc(C[C@H](N)C(=O)O)cc1; X1 = O=C(Cc1ccc(CN[*:1])cc1)[*:2]; 3Pal = N[C@@H](Cc1cccnc1)C(=O)O; αMeL = CC(C)C[C@](C)(N)C(=O)O; β3hL = CC(C)C[C@H](N)CC(=O)O; Orn = NCCC[C@H](N)C(=O)O; Dab = NCC[C@H](N)C(=O)O
# Experiments:
# [1] = Peptide stability in simulated gastric fluid (SGF); type: in vitro ADME; details: pig, pH 1.2, pepsin, 37° C.
# Procedure, shortened: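 Peptide (10 μM final) incubated at 37 °C in USP SGF, pH 1.2 with porcine pepsin 3.2 g/L; aliquots at 0, 1 and 4 h quenched in acidified acetonitrile.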
# [2] = Peptide stability in simulated intestinal fluid (SIF); type: in vitro ADME; details: pig, 10 μM
# Procedure, shortened: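 Peptide at 10 μM final in USP-type SIF (10 g/L porcine pancreatin, phosphate buffer pH 6.8), shaken at 37 °C. Samples at 0, 1 and 4 h quenched in acetonitrile/0.1% formic acid and analysed by LC-HRMS. Percent remaining calculated from absolute peak areas relative to time zero.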
# [3] = tested on: IL-23 mediated STAT3 signalling (DB cells); assay: Functional inhibition of IL-23 mediated STAT3 signalling (phospho-STAT3 Tyr705) in DB cells; type: cell-based, human; details: for hIL-23 (pSTAT3) antagonist % inhibition: Table 3-2, maximal inhibitory response, EC80 of hIL-23
# Procedure, shortened: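 DB cells preincubated 15 min with inhibitor at 37° C, 5% CO2, then stimulated 90 min with hIL-23 at EC80. Lysate phospho-STAT3 measured by MSD electrochemiluminescence. Signal normalized to IL-23-alone and buffer wells; IC50 and maximal inhibition from concentration–response curves.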
# [4] = molecular target: T1, human IL-23R (Homo sapiens, UniProt Q5VWK5); assay: Binding assay: displacement of fluorophore (TAMRA)-labelled reference compound from human IL-23R (BRET, Nluc-IL23R fusion protein membranes); details: for Emax: read-out: % displacement (hIL-23R binding)
# T1 construct: Nanoluc luciferase (Nluc); secretion signal encoded by the plasmid (not specified); expressed in transfected cells; crude membranes used in the assay
# T1 sequence (Q5VWK5 22-629): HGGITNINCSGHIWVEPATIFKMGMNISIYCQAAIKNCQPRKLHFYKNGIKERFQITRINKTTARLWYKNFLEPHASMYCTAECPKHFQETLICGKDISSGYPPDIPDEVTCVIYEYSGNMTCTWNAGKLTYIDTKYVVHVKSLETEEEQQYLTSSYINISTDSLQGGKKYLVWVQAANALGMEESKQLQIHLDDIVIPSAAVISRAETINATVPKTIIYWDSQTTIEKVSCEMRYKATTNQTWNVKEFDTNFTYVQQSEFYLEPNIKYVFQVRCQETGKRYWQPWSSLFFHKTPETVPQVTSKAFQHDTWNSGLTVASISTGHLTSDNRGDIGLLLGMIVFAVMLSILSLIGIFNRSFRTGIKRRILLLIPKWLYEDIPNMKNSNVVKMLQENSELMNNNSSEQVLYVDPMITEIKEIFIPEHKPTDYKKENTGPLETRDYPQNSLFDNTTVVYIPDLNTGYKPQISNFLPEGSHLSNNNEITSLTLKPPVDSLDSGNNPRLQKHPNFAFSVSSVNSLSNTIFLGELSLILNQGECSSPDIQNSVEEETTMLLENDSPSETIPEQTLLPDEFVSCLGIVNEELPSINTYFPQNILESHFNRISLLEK
# [5] = simulated intestinal fluid, SIF, pH 6.8, pancreatin, 37° C.
# [6] = Table 3-2, EC80 of hIL-23, read-out: hIL-23 (pSTAT3) antagonist IC50
# [7] = simulated intestinal fluid, SIF, pH 6.8, pancreatin, 37° C., read-out: SIF (% remaining 4 h)
# [8] = EC80 of hIL-23, read-out: IC50 (pSTAT3)
SMILES,"remaining at 1 h, 10 µM [1]","remaining at 1 h, 10 µM [2, 5]","IC50 [3, 6]",IC50 [4],"remaining at 4 h, 10 µM [1]",Emax [4],"IC50 [3, 8]","remaining at 4 h, 10 µM ([2]; 37 °C, simulated intestinal fluid pH 6.8 with porcine pancreatin, read-out: SIF (% after 4 h), intact peptide remaining)",hIL-23 (pSTAT3) antagonist % inhibition [3],"remaining at 4 h, 10 µM [2, 7]"
"CNC(=O)[C@H](Cc1cccnc1)NC(=O)[C@H](CCN)NC(=O)[C@@H]1CCC(=O)NCc2ccc(cc2)CC(=O)N[C@@H](CO)C(=O)N[C@H]2CCC(=O)NCC[C@H](NC(=O)[C@H](CCNC(C)=O)NC(=O)[C@H](Cc3c[nH]c4ccccc34)NC2=O)C(=O)N[C@@H](Cc2ccc(OCCN)cc2)C(=O)N[C@@H](Cc2ccc3ccccc3c2)C(=O)N[C@@](C)(CC(C)C)C(=O)N1 [Compound 25, [4-Aminomethyl-phenylacetyl](1c)*SE(2c)W[Dab(Ac)][Dab](2c)[Y(2-aminoethoxy)][2-Nal][2-Me-Leu]E(1c)[Dab][3-(3-Pyridyl)-Ala]-[NHMe]] ([X1]SEW[Dab](Ac)[Dab][AEF][2Nal][αMeL]E[Dab][3Pal]-NHMe; lactam 3-6, N-10)",93%,88%,0.076 nM,0.011 nM,–,–,–,–,100%,–
"CC(C)C[C@@H]1NC(=O)[C@H](Cc2c[nH]c3ccccc23)NC(=O)[C@H](Cc2c[nH]c3ccccc23)NC(=O)[C@@H]2CSCC(=O)CSC[C@H](NC(=O)[C@H]([C@@H](C)O)NC(=O)[C@@H](NC(=O)CN)CSCC(=O)CSC[C@@H](C(=O)N[C@@H](CO)C(N)=O)NC1=O)C(=O)N[C@@H](Cc1c[nH]c3ccccc13)C(=O)N[C@@H](CCC(=O)O)C(=O)N2 (single isomer, unassigned) [I1 (isomer 3), H-GC(1a)TC(2a)WEC(2a)WWLC(1a)S-[NH2], reference compound]",92%,0%,> 1000 nM,–,94%,105%,–,–,83%,0%
"CSCC[C@H](NC(=O)[C@@H]1CSCC(=O)CSC[C@H](NC(=O)[C@@H](N)CCC(=O)O)C(=O)N[C@@H](Cc2c[nH]c3ccccc23)C(=O)N[C@@H](CC(C)C)C(=O)N[C@H]2CSCC(=O)CSC[C@H](NC(=O)[C@H](CC(N)=O)NC(=O)[C@H](CCCNC(=N)N)NC(=O)[C@H](Cc3ccc(O)cc3)NC(=O)[C@H](Cc3ccc(O)cc3)NC2=O)C(=O)N[C@@H](CC(N)=O)C(=O)N1)C(N)=O (single isomer, unassigned) [I4 (isomer 3), H-EC(4a)WLC(5a)YYRNC(5a)NC(4a)M-[NH2], reference compound]",99%,0%,> 1000 nM,–,99%,84%,–,–,23%,0%
"CNC(=O)[C@H](Cc1cccnc1)NC(=O)[C@H](CCO)NC(=O)[C@@H]1CCC(=O)NCc2ccc(cc2)CC(=O)N[C@@H](CO)C(=O)N[C@H]2CCC(=O)NCC[C@H](NC(=O)[C@H](CCC(N)=O)NC(=O)[C@H](Cc3c[nH]c4ccccc34)NC2=O)C(=O)N[C@@H](Cc2ccc(OCCN)cc2)C(=O)N[C@@H](Cc2ccc3ccccc3c2)C(=O)N[C@@](C)(CC(C)C)C(=O)N1 [Compound 36, [4-Aminomethyl-phenylacetyl](1c)*SE(2c)WQ[Dab](2c)[Y(2-aminoethoxy)][2-Nal][2-Me-Leu]E(1c)[hSer][3-(3-Pyridyl)-Ala]-[NHMe]]",–,99%,0.034 nM,–,103%,94%,–,–,103%,–
"CC(C)C[C@@H](CC(N)=O)NC(=O)[C@H](Cc1cccnc1)NC(=O)[C@H](CCN)NC(=O)[C@@H]1CCC(=O)NCc2ccc(cc2)CC(=O)N[C@@H](CO)C(=O)N[C@H]2CCC(=O)NCC[C@H](NC(=O)[C@H](CCC(N)=O)NC(=O)[C@H](Cc3c[nH]c4ccccc34)NC2=O)C(=O)N[C@@H](Cc2ccc(OCCN)cc2)C(=O)N[C@@H](Cc2ccc3ccccc3c2)C(=O)N[C@@](C)(CC(C)C)C(=O)N1 [Compound 11, [4-Aminomethyl-phenylacetyl](1c)*SE(2c)WQ[Dab](2c)[Y(2-aminoethoxy)][2-Nal][2-Me-Leu]E(1c)[Dab][3-(3-Pyridyl)-Ala][beta-hLeu]-[NH2]] ([X1]SEWQ[Dab][AEF][2Nal][αMeL]E[Dab][3Pal][β3hL]-NH2; lactam 3-6, N-10)",98%,101%,0.68 nM,0.024 nM,97%,103%,0.68 nM,102%,98%,–

# The remaining compounds from weak to strong by IC50 [3, 6], led by results:
"remaining at 1 h, 10 µM [1]","remaining at 1 h, 10 µM [2, 5]","IC50 [3, 6]",IC50 [4],"remaining at 4 h, 10 µM [1]",Emax [4],"IC50 [3, 8]","remaining at 4 h, 10 µM ([2]; 37 °C, simulated intestinal fluid pH 6.8 with porcine pancreatin, read-out: SIF (% after 4 h), intact peptide remaining)",SMILES,hIL-23 (pSTAT3) antagonist % inhibition [3],"remaining at 4 h, 10 µM [2, 7]"
93%,98%,7.2 nM,0.11 nM,–,102%,–,–,"CC(C)C[C@]1(C)NC(=O)[C@H](Cc2ccc3ccccc3c2)NC(=O)[C@H](Cc2ccc(OCCN)cc2)NC(=O)[C@@H]2CCNC(=O)CC[C@H](NC(=O)[C@H](CO)NC(=O)Cc3ccc(cc3)CNC(=O)CC[C@@H](C(=O)N[C@@H](CCN)C(=O)N[C@@H](Cc3cn(C)cn3)C(N)=O)NC1=O)C(=O)N[C@@H](Cc1c[nH]c3ccccc13)C(=O)N[C@@H](CCC(N)=O)C(=O)N2 [Compound 14, [4-Aminomethyl-phenylacetyl](1c)*SE(2c)WQ[Dab](2c)[Y(2-aminoethoxy)][2-Nal][2-Me-Leu]E(1c)[Dab][H(Me)]-[NH2]]",99%,–
110%,97%,3.2 nM,0.037 nM,108%,103%,3.2 nM,–,"CC(C)C[C@]1(C)NC(=O)[C@H](Cc2ccc3ccccc3c2)NC(=O)[C@H](Cc2ccc(OCCN)cc2)NC(=O)[C@@H]2CCNC(=O)CC[C@H](NC(=O)[C@H](CO)NC(=O)Cc3ccc(cc3)CNC(=O)CC[C@@H](C(=O)N[C@@H](CCN)C(=O)NCCCCc3cccnc3)NC1=O)C(=O)N[C@@H](Cc1c[nH]c3ccccc13)C(=O)N[C@@H](CCC(N)=O)C(=O)N2 [Compound 6, [4-Aminomethyl-phenylacetyl](1c)*SE(2c)WQ[Dab](2c)[Y(2-aminoethoxy)][2-Nal][2-Me-Leu]E(1c)[Dab]-[NH-(4-(pyridin-3-yl)butanyl)]]",99%,–
100%,82%,1 nM,–,–,102%,–,–,"CNC(=O)[C@H](Cc1cccnc1)NC(=O)[C@@H](CO)NC(=O)[C@@H]1CCC(=O)NCc2ccc(cc2)CC(=O)N[C@@H](CO)C(=O)N[C@H]2CCC(=O)NCC[C@H](NC(=O)[C@H](CCC(N)=O)NC(=O)[C@H](Cc3c[nH]c4ccccc34)NC2=O)C(=O)N[C@@H](Cc2ccc(OCCN)cc2)C(=O)N[C@@H](Cc2ccc3ccccc3c2)C(=O)N[C@@](C)(CC(C)C)C(=O)N1 [Compound 38, [4-Aminomethyl-phenylacetyl](1c)*SE(2c)WQ[Dab](2c)[Y(2-aminoethoxy)][2-Nal][2-Me-Leu]E(1c)[{d}S][3-(3-Pyridyl)-Ala]-[NHMe]]",100%,–
100%,106%,0.052 nM,0.011 nM,–,97%,–,–,"CNC(=O)[C@H](Cc1cccnc1)NC(=O)[C@H](CCN)NC(=O)[C@@H]1CCC(=O)NCc2ccc(cc2)CC(=O)N[C@@H](CO)C(=O)N[C@H]2CCC(=O)NCC[C@H](NC(=O)[C@H](CCCN)NC(=O)[C@H](Cc3c[nH]c4ccccc34)NC2=O)C(=O)N[C@@H](Cc2ccc(OCCN)cc2)C(=O)N[C@@H](Cc2ccc3ccccc3c2)C(=O)N[C@@](C)(CC(C)C)C(=O)N1 [Compound 28, [4-Aminomethyl-phenylacetyl](1c)*SE(2c)W[Orn][Dab](2c)[Y(2-aminoethoxy)][2-Nal][2-Me-Leu]E(1c)[Dab][3-(3-Pyridyl)-Ala]-[NHMe]] ([X1]SEW[Orn][Dab][AEF][2Nal][αMeL]E[Dab][3Pal]-NHMe; lactam 3-6, N-10)",101%,–

# — US20260327264A1, “PEPTIDE INHIBITORS OF INTERLEUKIN-23 RECEPTOR” (Zealand Pharma A/S, priority 2023, published 2026)
